Measured values from patent publication US6303603A, “3-oxo-2(H)-1,2,4-triazine derivatives as ligands of 5 HT1A receptors” (Pierre Fabre Medicament, priority 1997, dated 2001).
Structures can show the parent of a compound that is named as a salt. Where two headings read alike, the source gives them in different places.

Assays:
[1] = Antidepressant activity: forced swimming test; format: in vivo; settings: po, percentage of animals with significant decrease vs control (p<0.05), read-out: ED50 (decrease in the immobility time)
α1-adrenergic receptor = experiment: Binding to the α1-adrenergic receptor (displacement of [3H]Prazosin); design: species or system rat (male Sprague-Dawley), brain cortex; settings: rat cortex, 30 min, 23 °C, mean of at least 3 experimentations
Experimental: (§1) Binding to the 5-HT1A, D2 dopaminergic and α1-adrenergic receptors:
(§2) Brains from male Sprague-Dawley 180-200 g rats [Ico: OFA SD (I.O.P.S. Caw); Iffa Credo, France], maintained at -70° C., were used in all the studies.
(§3) The affinity of the products for the various receptors was determined by displacement of radioactive ligands under the conditions summarized in Table 1.
(§4) The reaction is halted by rapid filtration, under vacuum, through Whatman GF/B filters and the tubes are rinsed with 2×5 ml of Tris-HCl 50 mM, pH 7.4, buffer at 25° C. The radioactivity collected on the filter is analyzed by liquid scintillation after addition of 4 ml of liquid scintillant (Emulsifier Safe, Packard). All the experiments are carried out in triplicate.
(§5) The inhibition constants (Ki) of the products are estimated from the displacement experimentations by using the EBDA (equilibrium binding data analysis) Radlig version 4 nonlinear regression program (Biosoft, Cambridge, UK; McPherson, 1985).
(§6) The pKi (-log Ki) values are given in the form of the mean ± SEM of at least 3 experimentations (Table 2).
Experimental conditions for binding to the receptors
[^3 H] ligand Incubation binding
Concen- Tissue Temper- Concen-
Binding KD tration Concen- Time ature tration
site (nM) (nM) Type tration (min) (° C.) Product (μM)
Buffers: (A) Tris HCl 50 mM pH 7.4, pargyline 10 μM, CaCl2 4 mM,
0.1% ascorbic acid; (B) Tris HCl 50 mM pH 7.4, NaCl 120 mM, KCl 5 mM; (C)

D2 dopaminergic receptor = molecular target: T1, D2 dopaminergic receptor (Rattus norvegicus, UniProt P61169); experiment: Binding to the D2 dopaminergic receptor (displacement of [3H]YM-09151-2); design: species or system rat (male Sprague-Dawley), brain striatum; settings: read-out: pKi D2 (converted)
T1 construct: Brains from male Sprague-Dawley 180-200 g rats; tissue Iffa Credo, France (animals); host or cells: rat brain striatum
T1 sequence (P61169 whole entry): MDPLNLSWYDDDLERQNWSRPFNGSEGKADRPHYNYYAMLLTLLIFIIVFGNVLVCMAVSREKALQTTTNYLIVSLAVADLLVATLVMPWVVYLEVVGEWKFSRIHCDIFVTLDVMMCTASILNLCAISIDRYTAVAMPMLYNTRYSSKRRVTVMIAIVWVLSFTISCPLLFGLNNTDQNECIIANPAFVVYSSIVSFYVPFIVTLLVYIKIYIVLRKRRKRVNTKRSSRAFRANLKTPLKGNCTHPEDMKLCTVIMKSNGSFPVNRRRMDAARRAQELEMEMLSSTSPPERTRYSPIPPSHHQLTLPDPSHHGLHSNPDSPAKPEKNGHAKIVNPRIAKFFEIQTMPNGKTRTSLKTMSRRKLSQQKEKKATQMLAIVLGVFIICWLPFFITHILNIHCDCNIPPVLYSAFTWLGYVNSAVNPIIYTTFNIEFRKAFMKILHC
Experimental: as §1, §2, §3, §4, §5, §6

5-HT1A [2] = molecular target: T2, 5-HT1A (Rattus norvegicus, UniProt P19327); experiment: Serotoninergic (5-HT) syndrome; format: in vivo, male rat (Sprague-Dawley); design: carried out with the male rat (Sprague-Dawley); from tissue; host or cells: whole living rat (in vivo); settings: po, male rat
T2 sequence (P19327 1-422): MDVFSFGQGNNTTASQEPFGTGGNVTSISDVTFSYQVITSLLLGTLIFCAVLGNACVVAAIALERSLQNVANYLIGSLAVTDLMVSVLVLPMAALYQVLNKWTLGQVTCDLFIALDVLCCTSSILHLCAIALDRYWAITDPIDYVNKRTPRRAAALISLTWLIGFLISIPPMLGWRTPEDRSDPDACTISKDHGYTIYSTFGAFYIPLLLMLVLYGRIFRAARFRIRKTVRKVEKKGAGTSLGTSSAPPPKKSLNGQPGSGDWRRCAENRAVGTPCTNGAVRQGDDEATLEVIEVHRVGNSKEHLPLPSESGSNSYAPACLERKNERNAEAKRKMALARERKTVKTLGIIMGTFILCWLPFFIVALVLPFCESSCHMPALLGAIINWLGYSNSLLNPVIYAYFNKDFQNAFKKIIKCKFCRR
Experimental: The central activity of the compounds of the invention was evaluated by their ability to provoke the 5-HT syndrome, which is characterized by:
an alternating bending and stretching of the forepaws (reciprocal fore-paw treading: FPT)
the retraction of the lower lip (lower lip on: LLR)
a position or the ventral surface of the animal is incobtact with the ground and the hind paws extended (flat body posture: FBP).
The experiments on the evaluation of the 5-HT syndrome are carried out with the male rat (Sprague-Dawley) according to the technique described by F. C. Colpaert et al. (Drug. Dev. Res, 26, 21-48, 1992) and M. S. Kleven et al. (J.P.E.T., 282, 747-759, 1997).

5-HT1A [3] = molecular target: T2, 5-HT1A; experiment: Binding to the 5-HT1A receptor (displacement of [3H]8-OH-DPAT); design: Brains from male Sprague-Dawley 180-200 g rats; tissue Iffa Credo, France (animals); host or cells: rat brain cortex; species or system rat (male Sprague-Dawley), brain cortex; settings: for Ki: read-out: pKi 5-HT1A (converted)
Experimental: as §1, §2, §3, §4, §5, §6

[4] = flat body posture (FBP), read-out: 5-HT syndrome ED50 FBP
[5] = lower lip retraction (LLR), read-out: 5-HT syndrome ED50 LLR
[6] = reciprocal fore-paw treading (FPT), read-out: 5-HT syndrome ED50 FPT

Row | Molecule | ED50 [1] | pKi α1 (α1-adrenergic receptor) | Ki (D2 dopaminergic receptor) | ED50 (5-HT1A [2]; [4]) | ED50 (5-HT1A [2]; [5]) | ED50 (5-HT1A [2]; [6]) | Ki (5-HT1A [3]) | 5-HT syndrome ED50 FBP (5-HT1A [2]; flat body posture (FBP)) | 5-HT syndrome ED50 LLR (5-HT1A [2]; lower lip retraction (LLR)) | 5-HT syndrome ED50 FPT (5-HT1A [2]; reciprocal fore-paw treading (FPT)) | pKi 5-HT1A (5-HT1A [3]; [3H]8-OH-DPAT, rat cortex, 30 min, 23 °C, mean of at least 3 experimentations)
1 | O=C(NCCN1CCN(c2cccc3c2OC[C@H](CO)O3)CC1)c1ccc(F)cc1 [Flesinoxan, reference compound] | 1.25 mg/kg | 6.50 | – | – | – | – | – | – | – | – | –
2 | Cn1ncc(OCC[C@H]2CC[C@@H]3CN(c4ncccn4)CCN3C2)nc1=O (relative stereo) [Compound 24, trans-2-Methyl-5-[2-(2-pyrimidin-2-yl-octahydropyrido[1,2-a]pyrazin-7-yl)ethoxy]-2H-[1,2,4]triazin-3-one] | 0.04 mg/kg | 6.35 | 2880 nM | 0.08 mg/kg | < 0.04 mg/kg | 0.08 mg/kg | 0.525 nM | – | – | – | –
3 | Cn1ncc(OCCCCNC[C@@H]2COc3ccccc3O2)nc1=O [Compound 21, (R)-5-[4-[(2,3-Dihydrobenzo[1,4]dioxin-2-ylmethyl)amino]butoxy)-2-methyl-2H-[1,2,4]triazin-3-one fumarate] | – | – | – | – | – | – | 0.331 nM | – | – | – | –
4 | Cn1ncc(OCCCCNCC2COc3ccccc3O2)nc1=O (stereo not shown) [Compound 20, 5-[4-((2,3-Dihydrobenzo[1,4]dioxin-2-ylmethyl)amino]butoxyl-2-methyl-2H-[1,2,4]triazin-3-one fumarate] | – | 7.65 | 66.1 nM | 0.08 mg/kg | < 0.04 mg/kg | 0.31 mg/kg | 0.107 nM | – | – | – | –
5 | Cn1ncc(OCCCCN2CCN(c3ncc(F)cn3)CC2)nc1=O [Compound 7, 5-[4-[4-(5-Fluoropyrimidin-2-yl)piperazin-1-yl]butoxy]-2-methyl-2H-[1,2,4]triazin-3-one] | – | – | – | 0.31 mg/kg | 0.08 mg/kg | 0.31 mg/kg | 0.912 nM | – | – | – | –
6 | Cc1ccnc(N2CCN(CCCCOc3cnn(C)c(=O)n3)CC2)n1.O=C(O)/C=C/C(=O)O [Compound 2, 2-Methyl-5-[4-[4-(4-methylpyrimidin-2-yl)piperazin-1-yl]butoxy]-2H-[1,2,4]triazin-3-one fumarate] | 0.04 mg/kg | 6.11 | 1740 nM | 0.08 mg/kg | 0.02 mg/kg | 0.08 mg/kg | 0.269 nM | – | – | – | –
7 | Cn1ncc(OCCCCN2CCN(c3cccc(Cl)c3)CC2)nc1=O [Compound 16, 5-[4-[4-(3-Chlorophenyl)piperazin-1-yl]Butoxy]-2-methyl-2H-[1,2,4]Triazin-3-one fumarate] | – | – | – | – | – | – | 0.0759 nM | – | – | – | –
8 | Cn1ncc(OCC[C@H]2CC[C@@H]3CN(c4ncccn4)CCN3C2)nc1=O (single isomer, unassigned) [Compound 26] | 0.04 mg/kg | – | – | < 0.04 mg/kg | < 0.04 mg/kg | 0.04 mg/kg | 0.245 nM | – | – | – | –
9 | Cn1ncc(OCCCCNC[C@H]2COc3ccccc3O2)nc1=O [Compound 22, (S)-5-[4-[(2,3-Dihydrobenzo[1,4]dioxin-2-ylmethyl)amino]butoxy]-2-methyl-2H-[1,2,4]triazin-3-one fumarate] | – | – | – | – | – | – | 0.0339 nM | – | – | – | –
10 | COc1ccnc(N2CCN(CCCCOc3cnn(C)c(=O)n3)CC2)n1 [Compound 4, 5-[4-[4-(4-Methoxypyrimnidin-2-yl)piperazin-1-yl]butoxy]-2-methyl-2H-[1,2,4]triazin-3-one fumarate] | – | 6.74 | 2240 nM | 0.08 mg/kg | < 0.04 mg/kg | 0.08 mg/kg | 0.138 nM | – | – | – | –
11 | O=C1CC2(CCCC2)CC(=O)N1CCCCN1CCN(c2ncccn2)CC1 [Buspirone, reference compound] | > 160 mg/kg | 6.19 | – | – | – | > 40 mg/kg | – | – | – | – | –
12 | COc1cccnc1N1CCN(CCCCOc2cnn(C)c(=O)n2)CC1 [Compound 15, 5-[4-[4-(3-Methoxypyridin-2-yl)piperazin-1-yl]butoxy]-2-methyl-2H-[1,2,4]triazin-3-one fumarate] | – | – | – | – | – | – | 0.263 nM | – | – | – | –
13 | Cn1ncc(OCCCCN2CCN(c3nccc(Cl)n3)CC2)nc1=O [Compound 6, 5-[4-[4-(4-Chloropyrimidin-2-yl)piperazin-1-yl]butoxy]-2-methyl-2H-[1,2,4]triazin-3-one] | 0.63 mg/kg | 6.25 | 1700 nM | 0.08 mg/kg | 0.08 mg/kg | 0.08 mg/kg | 0.209 nM | – | – | – | –
14 | Cn1ncc(OCCCCN2CCN(c3ncccn3)CC2)nc1=O [Compound 1, 2-Methyl-5-[4-(4-pyrimidin-2-yl-piperazin-1-yl)butoxy]-2H-[1,2,4]triazin-3-one] | – | 6.25 | 1580 nM | 0.08 mg/kg | 0.02 mg/kg | 0.08 mg/kg | 0.676 nM | – | – | – | –
15 | 5-[4-[4-(5-Chloro-2-methoxyphenyl)-piperazin-1-yl]butoxy]-2-methyl-2H- [1,2,4]triazin-3-one fumarate [Compound 17] | – | – | – | – | – | – | – | 0.31 mg/kg | 0.08 mg/kg | 0.31 mg/kg | 9.89
16 | Cc1cc(C)nc(N2CCN(CCCCOc3cnn(C)c(=O)n3)CC2)n1.O=C(O)/C=C/C(=O)O [Compound 3, 5-[4-[4-(4,6-Dimethylpyrimidin-2-yl)piperazin-1-yl]butoxy]-2-methyl-2H-[1,2,4]triazin-3-one fumarate] | – | 6.01 | 1120 nM | 0.08 mg/kg | 0.08 mg/kg | 0.08 mg/kg | 0.275 nM | – | – | – | –
17 | COc1ccc(Cl)cc1N1CCN(CCCCOc2cnn(C)c(=O)n2)CC1 [Compound 19, 5-[4-[4-(5-Chloro-2-methoxyphenyl)-piperazin-1-yl]butoxyl-2-methyl-2H-[1,2,4]triazin-3-one fumarate] | – | 8.21 | 15.1 nM | – | – | – | 0.309 nM | – | – | – | –
